Reference: PubChem BioAssay AID256 (DTP/NCI, 2004)
Several values for one entry are separate records, joined by “and”; a condition that tells them apart may be missing. Equal values may be shown once. Inconclusive results and toxic doses are left out. The calls were made as follows: active = survival T/C of 150% or more; inactive = T/C below 125% in these data.

Tested on: CD2F1 mice, L1210 leukemia ip, survival T/C
Assay: NCI In Vivo Anticancer Drug Screen. Data for tumor model L1210 Leukemia (intraperitoneal) in CD2F1 (CDF1) mice
Settings: higher = longer survival
Outline: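 Activity against a transplanted murine tumor was judged by comparing the compound group with a vehicle group. The outcome in the treated animals was divided by that in the controls.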

Measured: T/C

Nc1ncnc2c1ccn2C1OC(CO)C(O)C1O (configuration not stated)
inactive: endpoint: mean survival time, dose: 0.13 mg/kg/injection, schedule: Q01DX009 (ip), vehicle: saline 104 % of control and 106 % of control | endpoint: mean survival time, dose: 0.16 mg/kg/injection, schedule: Q01DX010 (ip), vehicle: saline 98 % of control and 108 % of control | endpoint: mean survival time, dose: 0.25 mg/kg/injection, schedule: Q01DX009 (ip), vehicle: saline 104 % of control and 110 % of control | endpoint: mean survival time, dose: 0.32 mg/kg/injection, schedule: Q01DX010 (ip), vehicle: saline 104 % of control and 111 % of control | endpoint: mean survival time, dose: 0.5 mg/kg/injection, schedule: Q01DX009 (ip), vehicle: saline 103 % of control and 104 % of control | endpoint: mean survival time, dose: 0.5 mg/kg/injection, schedule: Q03HX008 (ip), vehicle: carboxymethylcellulose (CMC) 102 % of control | endpoint: mean survival time, dose: 0.5 mg/kg/injection, schedule: Q06HX004 (ip), vehicle: carboxymethylcellulose (CMC) 101 % of control | endpoint: mean survival time, dose: 0.63 mg/kg/injection, schedule: Q01DX009 (ip), vehicle: saline 114 % of control | endpoint: mean survival time, dose: 0.63 mg/kg/injection, schedule: Q01DX010 (ip), vehicle: saline 98 % of control and 107 % of control | endpoint: mean survival time, dose: 1.0 mg/kg/injection, schedule: Q01DX001 (ip), vehicle: carboxymethylcellulose (CMC) 109 % of control | endpoint: mean survival time, dose: 1.0 mg/kg/injection, schedule: Q01DX009 (ip), vehicle: saline 99 % of control and 107 % of control | endpoint: mean survival time, dose: 1.0 mg/kg/injection, schedule: Q03HX008 (ip), vehicle: carboxymethylcellulose (CMC) 104 % of control | endpoint: mean survival time, dose: 1.0 mg/kg/injection, schedule: Q06HX004 (ip), vehicle: carboxymethylcellulose (CMC) 104 % of control | endpoint: mean survival time, dose: 1.0 mg/kg/injection, schedule: Q#A X002 (ip), vehicle: carboxymethylcellulose (CMC) 108 % of control | endpoint: mean survival time, dose: 1.25 mg/kg/injection, schedule: Q01DX009 (ip), vehicle: saline 118 % of control | endpoint: mean survival time, dose: 1.25 mg/kg/injection, schedule: Q01DX010 (ip), vehicle: saline 118 % of control and 119 % of control | endpoint: mean survival time, dose: 2.0 mg/kg/injection, schedule: Q03HX008 (ip), vehicle: carboxymethylcellulose (CMC) 117 % of control | endpoint: mean survival time, dose: 2.0 mg/kg/injection, schedule: Q06HX004 (ip), vehicle: carboxymethylcellulose (CMC) 107 % of control | endpoint: mean survival time, dose: 2.0 mg/kg/injection, schedule: Q#A X002 (ip), vehicle: carboxymethylcellulose (CMC) 110 % of control | endpoint: mean survival time, dose: 2.5 mg/kg/injection, schedule: Q01DX009 (ip), vehicle: saline 116 % of control | endpoint: mean survival time, dose: 4.0 mg/kg/injection, schedule: Q01DX001 (ip), vehicle: carboxymethylcellulose (CMC) 120 % of control | endpoint: mean survival time, dose: 4.0 mg/kg/injection, schedule: Q03HX008 (ip), vehicle: carboxymethylcellulose (CMC) 108 % of control | endpoint: mean survival time, dose: 4.0 mg/kg/injection, schedule: Q06HX004 (ip), vehicle: carboxymethylcellulose (CMC) 114 % of control | endpoint: mean survival time, dose: 8.0 mg/kg/injection, schedule: Q01DX001 (ip), vehicle: carboxymethylcellulose (CMC) 124 % of control | endpoint: mean survival time, dose: 8.0 mg/kg/injection, schedule: Q03HX008 (ip), vehicle: carboxymethylcellulose (CMC) 118 % of control | endpoint: mean survival time, dose: 8.0 mg/kg/injection, schedule: Q06HX004 (ip), vehicle: carboxymethylcellulose (CMC) 116 % of control | endpoint: mean survival time, dose: 8.0 mg/kg/injection, schedule: Q#A X002 (ip), vehicle: carboxymethylcellulose (CMC) 122 % of control | endpoint: median survival time, dose: 0.06 mg/kg/injection, schedule: Q03HX024 (ip), vehicle: other 107 % of control | endpoint: median survival time, dose: 0.13 mg/kg/injection, schedule: Q03HX008 (ip), vehicle: other 102 % of control | endpoint: median survival time, dose: 0.13 mg/kg/injection, schedule: Q03HX016 (ip), vehicle: other 96 % of control | endpoint: median survival time, dose: 0.13 mg/kg/injection, schedule: Q03HX024 (ip), vehicle: other 100 % of control | endpoint: median survival time, dose: 0.25 mg/kg/injection, schedule: Q01DX009 (ip), vehicle: other 94 % of control | endpoint: median survival time, dose: 0.25 mg/kg/injection, schedule: Q01DX009 (sc), vehicle: other 93 % of control | endpoint: median survival time, dose: 0.25 mg/kg/injection, schedule: Q03HX008 (ip), vehicle: other 96 % of control | endpoint: median survival time, dose: 0.25 mg/kg/injection, schedule: Q03HX016 (ip), vehicle: other 94 % of control | endpoint: median survival time, dose: 0.25 mg/kg/injection, schedule: Q03HX024 (ip), vehicle: other 101 % of control | endpoint: median survival time, dose: 0.5 mg/kg/injection, schedule: Q01DX009 (ip), vehicle: other 88 % of control | endpoint: median survival time, dose: 0.5 mg/kg/injection, schedule: Q01DX009 (oral), vehicle: other 99 % of control | endpoint: median survival time, dose: 0.5 mg/kg/injection, schedule: Q01DX009 (sc), vehicle: other 98 % of control | endpoint: median survival time, dose: 0.5 mg/kg/injection, schedule: Q03HX008 (ip), vehicle: other 100 % of control | endpoint: median survival time, dose: 0.5 mg/kg/injection, schedule: Q03HX016 (ip), vehicle: other 101 % of control | endpoint: median survival time, dose: 0.5 mg/kg/injection, schedule: Q03HX024 (ip), vehicle: other 96 % of control | endpoint: median survival time, dose: 0.5 mg/kg/injection, schedule: Q04DX003 (ip), vehicle: other 98 % of control | endpoint: median survival time, dose: 1.0 mg/kg/injection, schedule: Q01DX001 (ip), vehicle: other 102 % of control | endpoint: median survival time, dose: 1.0 mg/kg/injection, schedule: Q01DX001 (sc), vehicle: other 104 % of control | endpoint: median survival time, dose: 1.0 mg/kg/injection, schedule: Q01DX009 (ip), vehicle: other 92 % of control | endpoint: median survival time, dose: 1.0 mg/kg/injection, schedule: Q01DX009 (oral), vehicle: other 99 % of control | endpoint: median survival time, dose: 1.0 mg/kg/injection, schedule: Q01DX009 (sc), vehicle: other 98 % of control | endpoint: median survival time, dose: 1.0 mg/kg/injection, schedule: Q03HX008 (ip), vehicle: other 99 % of control | endpoint: median survival time, dose: 1.0 mg/kg/injection, schedule: Q03HX016 (ip), vehicle: other 93 % of control | endpoint: median survival time, dose: 1.0 mg/kg/injection, schedule: Q04DX003 (ip), vehicle: other 99 % of control | endpoint: median survival time, dose: 1.0 mg/kg/injection, schedule: Q08DX002 (ip), vehicle: other 108 % of control | endpoint: median survival time, dose: 2.0 mg/kg/injection, schedule: Q01DX001 (ip), vehicle: other 111 % of control | endpoint: median survival time, dose: 2.0 mg/kg/injection, schedule: Q01DX001 (oral), vehicle: other 99 % of control | endpoint: median survival time, dose: 2.0 mg/kg/injection, schedule: Q01DX001 (sc), vehicle: other 103 % of control | endpoint: median survival time, dose: 2.0 mg/kg/injection, schedule: Q01DX009 (oral), vehicle: other 100 % of control | endpoint: median survival time, dose: 2.0 mg/kg/injection, schedule: Q01DX009 (sc), vehicle: other 91 % of control | endpoint: median survival time, dose: 2.0 mg/kg/injection, schedule: Q04DX003 (ip), vehicle: other 111 % of control | endpoint: median survival time, dose: 2.0 mg/kg/injection, schedule: Q08DX002 (ip), vehicle: other 104 % of control | endpoint: median survival time, dose: 4.0 mg/kg/injection, schedule: Q01DX001 (ip), vehicle: other 113 % of control | endpoint: median survival time, dose: 4.0 mg/kg/injection, schedule: Q01DX001 (oral), vehicle: other 96 % of control | endpoint: median survival time, dose: 4.0 mg/kg/injection, schedule: Q01DX001 (sc), vehicle: other 99 % of control | endpoint: median survival time, dose: 4.0 mg/kg/injection, schedule: Q01DX009 (oral), vehicle: other 101 % of control | endpoint: median survival time, dose: 4.0 mg/kg/injection, schedule: Q01DX009 (sc), vehicle: other 93 % of control | endpoint: median survival time, dose: 4.0 mg/kg/injection, schedule: Q04DX003 (ip), vehicle: other 106 % of control | endpoint: median survival time, dose: 4.0 mg/kg/injection, schedule: Q08DX002 (ip), vehicle: other 114 % of control | endpoint: median survival time, dose: 8.0 mg/kg/injection, schedule: Q01DX001 (ip), vehicle: other 110 % of control | endpoint: median survival time, dose: 8.0 mg/kg/injection, schedule: Q01DX001 (oral), vehicle: other 101 % of control | endpoint: median survival time, dose: 8.0 mg/kg/injection, schedule: Q01DX001 (sc), vehicle: other 100 % of control | endpoint: median survival time, dose: 8.0 mg/kg/injection, schedule: Q01DX009 (oral), vehicle: other 103 % of control | endpoint: median survival time, dose: 8.0 mg/kg/injection, schedule: Q04DX003 (ip), vehicle: other 90 % of control | endpoint: median survival time, dose: 8.0 mg/kg/injection, schedule: Q08DX002 (ip), vehicle: other 108 % of control | endpoint: median survival time, dose: 16.0 mg/kg/injection, schedule: Q01DX001 (oral), vehicle: other 100 % of control | endpoint: median survival time, dose: 32.0 mg/kg/injection, schedule: Q01DX001 (oral), vehicle: other 86 % of control

Nc1cc(Cl)c([N+](=O)[O-])cc1O
inactive: endpoint: mean survival time, dose: 50.0 mg/kg/injection, schedule: Q01DX009 (ip), vehicle: Klucel (hydroxypropylcellulose) (HPC) 91 % of control | endpoint: mean survival time, dose: 100.0 mg/kg/injection, schedule: Q01DX009 (ip), vehicle: Klucel (hydroxypropylcellulose) (HPC) 94 % of control | endpoint: mean survival time, dose: 200.0 mg/kg/injection, schedule: Q01DX009 (ip), vehicle: Klucel (hydroxypropylcellulose) (HPC) 94 % of control

Cc1ccc(O)c(N)c1
inactive: endpoint: mean survival time, dose: 100.0 mg/kg/injection, schedule: Q04DX003 (ip), vehicle: saline with Tween-80 93 % of control | endpoint: mean survival time, dose: 200.0 mg/kg/injection, schedule: Q04DX003 (ip), vehicle: saline with Tween-80 111 % of control

CCCC(C)CC(=CC(C)(C)C)CC(C)CCC (configuration not stated)
inactive: endpoint: mean survival time, dose: 50.0 mg/kg/injection, schedule: Q01DX009 (ip), vehicle: saline with Tween-80 96 % of control | endpoint: mean survival time, dose: 100.0 mg/kg/injection, schedule: Q01DX009 (ip), vehicle: saline with Tween-80 100 % of control | endpoint: mean survival time, dose: 200.0 mg/kg/injection, schedule: Q01DX009 (ip), vehicle: saline with Tween-80 100 % of control
